Active and inactive are the calls of the source.

Assay [1] in a line: StAR promoter reporter inhibition counter-screen, dose response, counter-screen for LRH-1 inverse agonist project, cell-based, luminescence, luciferase reporter (AID 651969). Type of assay: functional.
Assay [2] addresses T1, Sentrin-specific protease 6 (Homo sapiens, UniProt Q9GZR1).
T1 sequence (Q9GZR1 whole entry): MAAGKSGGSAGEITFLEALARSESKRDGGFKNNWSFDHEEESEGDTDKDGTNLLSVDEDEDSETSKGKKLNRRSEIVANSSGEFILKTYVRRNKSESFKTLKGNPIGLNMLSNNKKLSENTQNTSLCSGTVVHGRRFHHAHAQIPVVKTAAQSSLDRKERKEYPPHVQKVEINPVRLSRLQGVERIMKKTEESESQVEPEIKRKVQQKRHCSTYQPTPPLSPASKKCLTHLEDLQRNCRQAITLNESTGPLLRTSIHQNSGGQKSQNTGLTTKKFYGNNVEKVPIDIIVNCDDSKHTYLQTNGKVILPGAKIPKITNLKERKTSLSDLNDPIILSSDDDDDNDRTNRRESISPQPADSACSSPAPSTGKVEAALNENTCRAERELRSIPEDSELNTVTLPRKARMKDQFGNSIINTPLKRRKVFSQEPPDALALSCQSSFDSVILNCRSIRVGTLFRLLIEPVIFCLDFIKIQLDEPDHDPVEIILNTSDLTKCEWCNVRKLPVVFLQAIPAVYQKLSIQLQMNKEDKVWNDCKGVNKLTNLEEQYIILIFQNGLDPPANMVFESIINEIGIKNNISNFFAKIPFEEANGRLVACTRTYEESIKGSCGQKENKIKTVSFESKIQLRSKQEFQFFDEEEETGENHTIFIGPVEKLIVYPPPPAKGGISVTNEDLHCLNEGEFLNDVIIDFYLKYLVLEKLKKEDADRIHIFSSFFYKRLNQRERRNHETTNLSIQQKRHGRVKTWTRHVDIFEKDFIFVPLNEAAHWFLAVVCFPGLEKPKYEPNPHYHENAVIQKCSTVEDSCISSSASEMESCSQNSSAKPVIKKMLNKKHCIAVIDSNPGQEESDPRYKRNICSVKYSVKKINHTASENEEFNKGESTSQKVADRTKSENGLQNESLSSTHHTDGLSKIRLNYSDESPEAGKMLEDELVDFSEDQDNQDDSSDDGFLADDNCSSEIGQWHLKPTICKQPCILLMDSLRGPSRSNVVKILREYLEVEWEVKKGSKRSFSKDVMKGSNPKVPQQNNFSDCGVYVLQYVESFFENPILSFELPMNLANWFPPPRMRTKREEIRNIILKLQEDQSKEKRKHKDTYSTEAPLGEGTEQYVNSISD
Format: functional.

Another assay addresses T2, Caspase-3 (Homo sapiens, UniProt P42574).
T2 sequence (P42574 whole entry): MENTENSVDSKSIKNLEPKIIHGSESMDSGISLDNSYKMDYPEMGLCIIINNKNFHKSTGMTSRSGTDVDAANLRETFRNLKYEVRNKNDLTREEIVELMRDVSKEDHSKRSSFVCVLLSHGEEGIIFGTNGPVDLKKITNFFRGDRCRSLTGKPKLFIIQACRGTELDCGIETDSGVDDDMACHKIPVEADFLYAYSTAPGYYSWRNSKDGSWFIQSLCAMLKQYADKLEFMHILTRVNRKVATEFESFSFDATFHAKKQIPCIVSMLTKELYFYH
Type of assay: functional.

Assay [3] deals with HEK293. Kind of assay: NOD1 signaling inhibitors, primary screen, cell-based, luminescence, uHTS (AID 1578). The conditions noted are these: Homo sapiens. Format: functional.
Assay [4] addresses Nuclear receptor subfamily 5 group A member 2 (Homo sapiens, UniProt O00482). Format: functional, cell-based.
The subject of assay [5] is HEK293. Kind of assay: cells. Format: functional, cell-based. The conditions noted are these: Homo sapiens.
Another assay addresses Steroidogenic factor 1 (Homo sapiens, UniProt Q13285). Put plainly: Counterscreen for inverse agonists of the liver receptor homolog-1 (LRH-1; NR5A2): Luminescence-based cell-based high throughput dose response assay to identify inverse agonists of the Steroidogenic Factor 1 Nuclear Receptor (SF1; NR5A1). Type of assay: functional. On the technique in general: The purpose of a counterscreen is to sort out artefacts and off-target activity.

The subject of assay [6] is HEK293. Kind of assay: cells. Type of assay: functional, cell-based. To be noted: Homo sapiens. The source holds these as a separate data set.
The target in assay [7] is T3, Sentrin-specific protease 8 (Homo sapiens, UniProt Q96LD8).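 Further: luminescence read-out of SENP8 inhibition, dose-response confirmation following an ultra-high-throughput screen.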
T3 sequence (Q96LD8 whole entry): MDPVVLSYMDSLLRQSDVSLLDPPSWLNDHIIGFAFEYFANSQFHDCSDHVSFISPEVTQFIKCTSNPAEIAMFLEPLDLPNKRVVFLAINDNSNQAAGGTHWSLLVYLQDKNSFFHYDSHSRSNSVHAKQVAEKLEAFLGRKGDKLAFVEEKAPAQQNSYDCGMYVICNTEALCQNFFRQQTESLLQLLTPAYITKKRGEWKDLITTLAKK
Format: functional.

Assay [8] relates to HEK293. Put plainly: NOD2 signaling inhibitors in MDP-stimulated cells, cell-based, uHTS, luminescence (AID 2001). Format: functional. To be noted: Homo sapiens.
The target of assay [9] is T4, Sentrin-specific protease 7 (Homo sapiens, UniProt Q9BQF6).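 Further: Luminescence-based dose-response confirmation of ultra-high-throughput screening hits, measuring inhibition of SENP7.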
T4 sequence (Q9BQF6 whole entry): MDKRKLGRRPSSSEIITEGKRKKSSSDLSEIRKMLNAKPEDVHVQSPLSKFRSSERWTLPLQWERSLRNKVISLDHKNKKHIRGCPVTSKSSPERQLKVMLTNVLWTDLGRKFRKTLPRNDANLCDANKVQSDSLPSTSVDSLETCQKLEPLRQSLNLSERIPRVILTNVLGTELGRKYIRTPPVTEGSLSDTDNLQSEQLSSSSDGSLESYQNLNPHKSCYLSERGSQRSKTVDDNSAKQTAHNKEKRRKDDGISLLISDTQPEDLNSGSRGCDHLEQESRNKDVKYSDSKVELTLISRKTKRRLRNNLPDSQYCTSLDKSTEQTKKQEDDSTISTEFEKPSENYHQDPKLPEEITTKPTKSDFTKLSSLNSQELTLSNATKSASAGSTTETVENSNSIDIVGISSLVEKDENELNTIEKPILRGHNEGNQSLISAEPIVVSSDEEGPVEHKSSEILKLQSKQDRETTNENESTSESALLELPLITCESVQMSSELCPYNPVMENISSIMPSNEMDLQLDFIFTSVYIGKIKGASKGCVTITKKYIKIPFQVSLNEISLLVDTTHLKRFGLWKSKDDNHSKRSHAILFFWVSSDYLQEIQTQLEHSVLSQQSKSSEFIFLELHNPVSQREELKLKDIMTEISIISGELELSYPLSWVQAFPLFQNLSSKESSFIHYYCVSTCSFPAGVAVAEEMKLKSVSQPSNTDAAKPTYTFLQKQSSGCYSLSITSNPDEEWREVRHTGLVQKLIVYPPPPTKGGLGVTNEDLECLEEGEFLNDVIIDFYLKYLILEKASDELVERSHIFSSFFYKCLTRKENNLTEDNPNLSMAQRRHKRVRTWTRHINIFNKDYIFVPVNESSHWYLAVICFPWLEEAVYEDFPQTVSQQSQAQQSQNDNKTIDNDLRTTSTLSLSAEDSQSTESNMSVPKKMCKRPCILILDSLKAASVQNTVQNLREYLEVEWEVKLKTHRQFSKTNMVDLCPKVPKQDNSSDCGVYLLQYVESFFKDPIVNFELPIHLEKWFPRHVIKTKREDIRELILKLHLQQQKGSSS
Format: functional.

Assay [10] is described as follows: THP-1 cell cytotoxicity, dose response, cytotoxicity control for non-replicating M. tuberculosis project (AID 489025). Type of assay: functional.
A further assay can be described thus: cells. Format: functional.
In assay [11] the test system is HEK293. Put plainly: cells. Format: functional, cell-based. The conditions noted are these: Homo sapiens. The source holds these as a separate data set.
In assay [12] the target is Nucleotide-binding oligomerization domain-containing protein 2 (Homo sapiens, UniProt Q9HC29). Put plainly: NOD2 signaling inhibitors, cell-based, luminescence, uHTS, HEK293 (AID 1566). Type of assay: functional.
Nucleotide-binding oligomerization domain-containing protein 2, sequence (Q9HC29 whole entry, the tested form may be a part): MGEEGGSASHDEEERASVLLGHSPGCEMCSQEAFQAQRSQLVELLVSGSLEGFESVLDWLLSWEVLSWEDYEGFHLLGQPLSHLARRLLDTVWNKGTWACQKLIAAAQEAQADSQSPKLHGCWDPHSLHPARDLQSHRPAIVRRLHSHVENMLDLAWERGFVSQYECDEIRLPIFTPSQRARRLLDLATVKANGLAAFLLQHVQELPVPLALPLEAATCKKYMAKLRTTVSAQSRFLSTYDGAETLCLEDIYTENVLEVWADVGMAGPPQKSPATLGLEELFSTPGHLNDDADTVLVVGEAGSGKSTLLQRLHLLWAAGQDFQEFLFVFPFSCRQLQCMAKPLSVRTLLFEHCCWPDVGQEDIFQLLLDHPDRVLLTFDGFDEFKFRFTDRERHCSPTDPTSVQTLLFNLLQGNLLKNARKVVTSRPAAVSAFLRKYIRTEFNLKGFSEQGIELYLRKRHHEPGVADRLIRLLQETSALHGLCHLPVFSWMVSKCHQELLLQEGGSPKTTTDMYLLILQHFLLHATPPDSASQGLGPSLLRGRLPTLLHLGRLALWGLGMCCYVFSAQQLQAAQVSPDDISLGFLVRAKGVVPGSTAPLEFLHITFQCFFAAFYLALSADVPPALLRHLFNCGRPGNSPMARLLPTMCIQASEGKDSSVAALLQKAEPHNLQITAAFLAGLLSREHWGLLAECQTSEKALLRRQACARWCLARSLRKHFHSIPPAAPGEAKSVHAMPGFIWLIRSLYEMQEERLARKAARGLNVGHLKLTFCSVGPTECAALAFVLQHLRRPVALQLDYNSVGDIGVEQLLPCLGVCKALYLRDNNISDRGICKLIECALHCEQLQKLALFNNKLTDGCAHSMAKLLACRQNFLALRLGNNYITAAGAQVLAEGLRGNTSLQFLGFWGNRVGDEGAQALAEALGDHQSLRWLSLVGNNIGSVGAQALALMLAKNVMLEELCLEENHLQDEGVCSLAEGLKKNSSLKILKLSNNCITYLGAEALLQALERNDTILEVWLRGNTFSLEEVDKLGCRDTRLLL
Assay [13] is described as follows: cytotoxicity toward DRD oncogenic fibroblasts, dose response, cell-based, non-viral oncogenic, luminescence (AID 1934). Format: functional. To be noted: Homo sapiens.
Assay [14] relates to BJ. Put plainly: cytotoxicity toward BJ-TERT-LT-ST fibroblasts, dose response, cell-based, RAS-independent, luminescence (AID 1935).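 Further: BJ fibroblasts immortalized with TERT plus LT and ST oncogenes.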 Type of assay: functional. The conditions noted are these: Homo sapiens.
The target of another assay is T5, Protein RecA (Mycobacterium tuberculosis, UniProt P9WHJ3).
T5 sequence (P9WHJ3 whole entry): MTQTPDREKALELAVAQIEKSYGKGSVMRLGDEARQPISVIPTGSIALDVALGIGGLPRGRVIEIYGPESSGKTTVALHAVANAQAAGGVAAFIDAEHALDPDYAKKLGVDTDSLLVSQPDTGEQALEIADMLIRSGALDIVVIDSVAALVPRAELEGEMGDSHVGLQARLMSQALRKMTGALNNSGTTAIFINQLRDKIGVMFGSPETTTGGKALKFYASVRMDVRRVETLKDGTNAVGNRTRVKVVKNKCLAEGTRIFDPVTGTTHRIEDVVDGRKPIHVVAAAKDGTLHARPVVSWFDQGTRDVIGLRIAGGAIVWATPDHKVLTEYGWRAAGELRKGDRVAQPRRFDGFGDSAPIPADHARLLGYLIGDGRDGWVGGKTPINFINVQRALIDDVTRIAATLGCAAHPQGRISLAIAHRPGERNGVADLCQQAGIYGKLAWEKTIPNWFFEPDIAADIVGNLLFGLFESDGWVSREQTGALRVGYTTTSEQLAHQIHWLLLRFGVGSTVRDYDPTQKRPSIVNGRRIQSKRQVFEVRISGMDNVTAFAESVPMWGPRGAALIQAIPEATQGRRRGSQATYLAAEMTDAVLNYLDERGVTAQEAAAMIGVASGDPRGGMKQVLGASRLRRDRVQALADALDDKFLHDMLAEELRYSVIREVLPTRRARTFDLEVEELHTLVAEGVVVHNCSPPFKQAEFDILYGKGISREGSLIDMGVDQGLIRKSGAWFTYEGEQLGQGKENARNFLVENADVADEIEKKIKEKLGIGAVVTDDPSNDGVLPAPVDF
Put plainly: Fluorescence Cell-Free Homogeneous Dose Retest to Identify Inhibitors of RecA-Intein Splicing Activity. [Related pubchem assays (depositor defined):AID2097, AID2223, AID489010, AID492950]. Format: functional.

In assay [15] the test system is BJ. Kind of assay: cells. Type of assay: functional, cell-based. The conditions noted are these: Homo sapiens.
Assay [16] relates to BJ. Put plainly: cytotoxicity toward BJ-TERT fibroblasts, dose response, cell-based, RAS-independent, luminescence (AID 1933). To be noted: Homo sapiens. Type of assay: functional.
Assay [17] deals with T6, Replicative DNA helicase DnaB (Mycobacterium tuberculosis, UniProt P9WMR3).
T6 sequence (P9WMR3 whole entry): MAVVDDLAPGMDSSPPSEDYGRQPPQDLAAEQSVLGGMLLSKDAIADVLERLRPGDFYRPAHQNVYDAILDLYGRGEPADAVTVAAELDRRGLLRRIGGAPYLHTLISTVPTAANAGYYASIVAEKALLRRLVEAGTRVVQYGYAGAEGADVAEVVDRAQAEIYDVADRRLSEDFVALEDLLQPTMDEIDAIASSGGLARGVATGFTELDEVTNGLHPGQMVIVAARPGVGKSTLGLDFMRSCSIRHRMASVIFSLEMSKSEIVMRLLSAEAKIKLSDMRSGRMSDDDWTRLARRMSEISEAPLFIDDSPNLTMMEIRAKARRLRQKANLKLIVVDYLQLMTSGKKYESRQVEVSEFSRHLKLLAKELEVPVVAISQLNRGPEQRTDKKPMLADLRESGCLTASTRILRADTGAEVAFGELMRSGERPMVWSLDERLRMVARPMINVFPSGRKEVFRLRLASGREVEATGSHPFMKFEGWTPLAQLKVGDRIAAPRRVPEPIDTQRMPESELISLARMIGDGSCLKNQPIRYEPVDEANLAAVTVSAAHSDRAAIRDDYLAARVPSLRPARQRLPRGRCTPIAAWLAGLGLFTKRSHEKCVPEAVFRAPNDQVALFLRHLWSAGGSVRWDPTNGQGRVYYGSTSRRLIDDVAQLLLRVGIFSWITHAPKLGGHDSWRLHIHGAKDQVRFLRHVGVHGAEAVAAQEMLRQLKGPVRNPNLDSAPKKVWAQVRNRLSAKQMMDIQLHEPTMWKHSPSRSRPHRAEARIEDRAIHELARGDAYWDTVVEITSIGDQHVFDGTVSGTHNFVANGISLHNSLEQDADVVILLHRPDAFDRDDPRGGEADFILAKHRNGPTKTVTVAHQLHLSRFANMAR
Kind of assay: DnaB intein splicing inhibitors, dose response, biochemical, cell-free fluorescence (AID 449749). Type of assay: functional.

Nuclear receptor subfamily 5 group A member 2, sequence (O00482 whole entry): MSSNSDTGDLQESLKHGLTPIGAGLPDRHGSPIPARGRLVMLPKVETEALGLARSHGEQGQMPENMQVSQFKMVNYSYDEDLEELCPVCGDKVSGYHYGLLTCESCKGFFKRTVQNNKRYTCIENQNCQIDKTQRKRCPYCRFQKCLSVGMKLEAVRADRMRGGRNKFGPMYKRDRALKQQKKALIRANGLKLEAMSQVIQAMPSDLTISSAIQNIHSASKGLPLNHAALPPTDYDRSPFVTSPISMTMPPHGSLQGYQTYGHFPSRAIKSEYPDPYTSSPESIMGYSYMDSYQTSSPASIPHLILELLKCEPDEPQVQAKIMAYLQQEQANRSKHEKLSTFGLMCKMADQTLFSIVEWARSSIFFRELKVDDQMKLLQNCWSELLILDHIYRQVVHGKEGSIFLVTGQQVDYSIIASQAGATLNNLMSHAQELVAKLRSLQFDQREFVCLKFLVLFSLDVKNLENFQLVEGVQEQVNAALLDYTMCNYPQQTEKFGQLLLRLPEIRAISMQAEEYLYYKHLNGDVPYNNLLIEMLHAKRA
Steroidogenic factor 1, sequence (Q13285 whole entry): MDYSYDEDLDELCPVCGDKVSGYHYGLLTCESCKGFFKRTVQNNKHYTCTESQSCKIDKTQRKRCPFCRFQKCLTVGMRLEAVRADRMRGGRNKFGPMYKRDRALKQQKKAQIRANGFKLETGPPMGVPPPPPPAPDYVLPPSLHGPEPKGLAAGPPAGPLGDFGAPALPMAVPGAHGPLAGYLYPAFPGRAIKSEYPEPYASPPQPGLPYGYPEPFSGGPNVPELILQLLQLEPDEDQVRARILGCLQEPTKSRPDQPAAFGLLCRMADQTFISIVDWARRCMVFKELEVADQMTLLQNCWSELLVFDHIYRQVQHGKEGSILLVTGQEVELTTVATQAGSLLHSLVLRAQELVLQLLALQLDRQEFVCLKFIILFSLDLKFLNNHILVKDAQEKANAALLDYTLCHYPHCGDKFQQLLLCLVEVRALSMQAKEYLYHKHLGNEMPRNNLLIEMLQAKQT

In the case of `O=C(Nc1nc2c(Cl)cccc2s1)c1ccc([N+](=O)[O-])o1`, the IC50 (commonly the concentration needed to halve the response being measured) in [1] is 35.9 µM (inactive); in assay [2], 20.3 µM (active); at Caspase-3, 61.8 µM (active); in [4] it was 0.148 µM (active); in the assay on HEK293 [5], 18.6 µM (active); at Steroidogenic factor 1, 0.443 µM (active). In addition, the half-inhibitory concentration (IC50) with HEK293 [6] was 7.38 µM (active); in assay [7], 32.9 µM (active); with HEK293 [8], 13.2 µM (inactive); in assay [9] it was 17.2 µM (active); in “cells”, 10.4 µM (active). Further, in the assay on HEK293 [3], the EC50 (commonly the concentration giving half of the maximal effect) was 5.52 µM (active). Also, in [10], the CC50 (commonly the concentration giving 50% cytotoxicity) is 39.3 µM (active).

In the case of `CCOC(=O)c1sc2ccccc2c1OC(=O)c1ccc(C)cc1`, the IC50 in the assay with HEK293 [11] was > 20 µM (inactive); in the assay on HEK293 [5] it was 9.53 µM (active); in the assay on HEK293 [6], > 20 µM (inactive); in the assay with HEK293 [8], 6.76 µM (active). Further, the EC50 was 10.7 µM (active) in the assay with HEK293 [3] and 2.22 µM (active) in [12].

Turning to `O=C(CCl)Nc1cc(-c2ccccc2)nn1-c1ccccc1`, the IC50 is > 20 µM (inactive) in the assay with HEK293 [11], 4.63 µM (active) in the assay with HEK293 [5], 19.2 µM (active) in the assay on HEK293 [6] and 7.21 µM (active) in the assay with HEK293 [8]. For the same compound, the EC50 with HEK293 [3] was 4.71 µM (active); in assay [13], 8.91 µM (active); in the assay on BJ [14], 5.05 µM (active); in [12], > 20 µM (inactive); on Protein RecA, 5.55 µM (active); in the assay with BJ [15], 9.6 µM (active). The EC50 in the assay with BJ [16] is 5.38 µM (inconclusive). Also, the AC50 (commonly the midpoint of the concentration-response curve, whichever way the signal moves) in assay [17] was > 380 µM (inactive).
